From patent US20250109140A1, “5-[5-(PIPERIDIN-4-YL)THIENO[3,2-C]PYRAZOL-2-YL]INDAZOLE DERIVATIVES AND RELATED COMPOUNDS AS MODULATORS FOR SPLICING NUCLEIC ACIDS AND FOR THE TREATMENT OF PROLIFERATIVE DISEASES” (REMIX THERAPUTICS INC., priority 2022, published 2025)
Structures can show the parent of a compound that is named as a salt. Where two headings read alike, the source gives them in different places.

What was measured:
[1] = tested on: HTT mRNA; assay: Splicing RT-qPCR assay, HTT canonical (CJ) and alternative (AJ) junction mRNA; assay type: cell-based; conditions: Homo sapiens; for EC50: AC50 = 50% response in AJ mRNA increase
In short: (§1)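 Readout is RT-qPCR of CJ and AJ mRNA in lysates from A673 or K562 cells given an 11-point titration (top dose 10 uM final, DMSO at most 0.25%) for 24 hours. Data were normalized to GAPDH, GUSB or PPIA, then to DMSO.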

[2] = tested on: MYB mRNA; assay: Splicing RT-qPCR assay, MYB canonical (CJ) and alternative (AJ) junction mRNA; assay type: cell-based; conditions: Homo sapiens; for EC50: AC50 = 50% response in AJ mRNA increase
In short: as §1

[3] = tested on: SMN2 mRNA; assay: Splicing RT-qPCR gene panel, SMN2 canonical junction (CJ) mRNA; assay type: cell-based; conditions: Homo sapiens; Table 8; larger gene panel, decrease in CJ mRNA levels
In short: as §1

[4] = tested on: Target C mRNA; assay: Splicing RT-qPCR gene panel, Target C canonical junction (CJ) mRNA; assay type: cell-based; conditions: Homo sapiens; Table 8; larger gene panel, decrease in CJ mRNA levels
In short: as §1

[5] = tested on: HiBiT-tagged MYB protein; assay: HiBiT protein abundance assay, MYB (K562 HiBiT knock-in cells); assay type: cell-based, human; conditions: 24 hours treatment
In short: (§2)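 Luminescence from the Nano-Glo HiBiT lytic reagent measured tagged protein remaining in knock-in K562 cells after 24 h compound exposure (top dose 10 µM final, 3-fold, 10 points). Responses normalized between parental K562 and DMSO-treated lines were fit by four-parameter logistic to interpolate the 50% concentration.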

[6] = tested on: HiBiT-tagged HTT protein; assay: HiBiT protein abundance assay, HTT (K562 HiBiT knock-in cells); assay type: cell-based, human; conditions: 24 hours treatment
In short: as §2

[7] = tested on: K562 (human chronic myelogenous leukemia) cells; assay: Cell viability, Cell Titer Glo 2.0 assay, K562 cells; assay type: cell-based; conditions: 72 hours
In short: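 Luminescent Cell Titer Glo 2.0 readout after 72 h exposure (37° C, 5% CO2), medium-only wells as blank. Cells plated 500/well in IMDM with 10% FBS; test compounds diluted from DMSO series 1:100 into medium, 0.1% DMSO final.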

[8] = tested on: Target C; assay: HiBiT protein abundance assay, Target C (K562 HiBiT knock-in cells); assay type: cell-based, human; conditions: 24 hours treatment
In short: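 The readout was Nano-Glo HiBiT lytic luminescence after 24 h compound exposure at 37 °C, in 10000 K562 knock-in cells/well. Compounds ran as 10-point, 3-fold series, top final […], ≤0.25% DMSO. Responses were scaled between parental K562 and DMSO-treated controls, and IC50 was interpolated at 50% from four-parameter logistic curves.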

[9] = Table 7, RT-qPCR, A673 or K562 cells, 24 hours treatment
[10] = Table 7, IC50 = 50% response in CJ mRNA decrease, RT-qPCR, A673 or K562 cells, 24 hours treatment, read-out: HTT CJ
[11] = Table 8, larger gene panel, decrease in CJ mRNA levels, read-out: HTT CJ IC50
[12] = Table 7, IC50 = 50% response in CJ mRNA decrease, RT-qPCR, A673 or K562 cells, 24 hours treatment, read-out: MYB CJ
[13] = Table 8, larger gene panel, decrease in CJ mRNA levels, read-out: MYB CJ IC50

| Compound | EC50 [1, 9] [nM] | IC50 [1, 10] [nM] | IC50 [1, 11] [nM] | EC50 [2, 9] [nM] | IC50 [2, 12] [nM] | IC50 [2, 13] [nM] | IC50 [3] [nM] | IC50 [4] [nM] | IC50 [5] [nM] | IC50 [6] [nM] | IC50 [7] [nM] | IC50 [8] [nM] |
| --- | --- | --- | --- | --- | --- | --- | --- | --- | --- | --- | --- | --- |
| Cc1cc(-c2nc3cn(C4CCNCC4)nc3s2)cc2cn(C)nc12 [Compound 1101] | 100 to 1000 | < 100 | < 100 | 100 to 1000 | 100 to 1000 | 100 to 1000 | < 100 | 100 to 1000 | 100 to 1000 | < 100 | 100 to 1000 | < 100 |
| Cn1cc2cc(-c3cc4cn(C5CCNCC5)nc4s3)c(O)c(F)c2n1 [Compound 215] | 100 to 1000 | 100 to 1000 | 100 to 1000 | 100 to 1000 | 1000 to 10000 | 100 to 1000 | < 100 | 100 to 1000 | 1000 to 10000 | 100 to 1000 | 1000 to 10000 | 1000 to 10000 |
| Cc1cn2nc(-n3cc4sc(N5CCC(NC(C)(C)C)C5)cc4n3)cc(C)c2n1 (stereo not drawn) [Compound 189, N-tert-butyl-1-(2-{2,8-dimethylimidazo[1,2-b]pyridazin-6-yl}thieno[3,2-c]pyrazol-5-yl) pyrrolidin-3-amine] | > 10000 | > 10000 | > 10000 | > 10000 | > 10000 | > 10000 | 1000 to 10000 | > 10000 | > 10000 | > 10000 | 1000 to 10000 | > 10000 |
| Cc1cn2nc(-c3cc4cn(C5CCNCC5)nc4s3)c(O)c2c(C)n1 [Compound 213, 4,6-dimethyl-2-[2-(piperidin-4-yl)thieno[2,3-c]pyrazol-5-yl]pyrazolo[1,5-a]pyrazin-3-ol hydrochloride] | 1000 to 10000 | 1000 to 10000 | 1000 to 10000 | 1000 to 10000 | > 10000 | 1000 to 10000 | 1000 to 10000 | > 10000 | > 10000 | > 10000 | 1000 to 10000 | > 10000 |

Now from value to molecule:

| EC50 [1, 9] [nM] | IC50 [1, 10] [nM] | IC50 [1, 11] [nM] | EC50 [2, 9] [nM] | IC50 [2, 12] [nM] | IC50 [2, 13] [nM] | IC50 [3] [nM] | IC50 [4] [nM] | IC50 [5] [nM] | IC50 [6] [nM] | IC50 [7] [nM] | IC50 [8] [nM] | Compound |
| --- | --- | --- | --- | --- | --- | --- | --- | --- | --- | --- | --- | --- |
| < 100 | < 100 | < 100 | 100 to 1000 | 100 to 1000 | 100 to 1000 | < 100 | 100 to 1000 | 100 to 1000 | < 100 | 100 to 1000 | 100 to 1000 | CCN1CCC(n2cc3cc(-c4cc(F)c5nn(C)cc5c4)sc3n2)CC1 [Compound 149, 5-[2-(1-ethylpiperidin-4-yl)thieno[2,3-c]pyrazol-5-yl]-7-fluoro-2-methylindazole] |
| 100 to 1000 | 100 to 1000 | 100 to 1000 | 1000 to 10000 | 1000 to 10000 | 1000 to 10000 | 100 to 1000 | 1000 to 10000 | 100 to 1000 | 100 to 1000 | 1000 to 10000 | 100 to 1000 | Cc1cn2nc(-n3cc4sc(C5CCNCC5)cc4n3)cc2c(C)n1 [Compound 171] |
| 100 to 1000 | < 100 | 100 to 1000 | 1000 to 10000 | 100 to 1000 | 1000 to 10000 | < 100 | 100 to 1000 | 100 to 1000 | < 100 | 100 to 1000 | < 100 | Cc1cn2cc(-n3cc4cc(C5CCNCC5)sc4n3)cc(F)c2n1 [Compound 156] |
| 100 to 1000 | 1000 to 10000 | 100 to 1000 | 1000 to 10000 | 1000 to 10000 | 1000 to 10000 | 100 to 1000 | 1000 to 10000 | 1000 to 10000 | 1000 to 10000 | 1000 to 10000 | 1000 to 10000 | Cn1cc2cc(-c3cc4cn(C5CCNCC5)nc4s3)ncc2n1 [Compound 214] |
